# Molecular target: human neprilysin (EC 3.4.24.11; NEP) (Homo sapiens (Human), UniProt P08473)
# Assay: In vitro enzyme inhibition assay at human NEP (fluorogenic peptide substrate)
# Type: biochemical
# Details: pKi values at human NEP, recombinant human NEP
# Procedure, shortened: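 pKi derived from apparent Ki fitted as v=v0/[1+(I/K′)] to Ex320/Em405 fluorescence. Compounds (pM to 10 μM) sat with recombinant human enzyme 30 min at 37 °C before 10 μM fluorogenic Mca peptide was added in HEPES pH 7.5 buffer with 10 μM ZnSO4; 20 min reaction, acetic acid quench.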
# human neprilysin (EC 3.4.24.11; NEP), sequence (P08473 52-750): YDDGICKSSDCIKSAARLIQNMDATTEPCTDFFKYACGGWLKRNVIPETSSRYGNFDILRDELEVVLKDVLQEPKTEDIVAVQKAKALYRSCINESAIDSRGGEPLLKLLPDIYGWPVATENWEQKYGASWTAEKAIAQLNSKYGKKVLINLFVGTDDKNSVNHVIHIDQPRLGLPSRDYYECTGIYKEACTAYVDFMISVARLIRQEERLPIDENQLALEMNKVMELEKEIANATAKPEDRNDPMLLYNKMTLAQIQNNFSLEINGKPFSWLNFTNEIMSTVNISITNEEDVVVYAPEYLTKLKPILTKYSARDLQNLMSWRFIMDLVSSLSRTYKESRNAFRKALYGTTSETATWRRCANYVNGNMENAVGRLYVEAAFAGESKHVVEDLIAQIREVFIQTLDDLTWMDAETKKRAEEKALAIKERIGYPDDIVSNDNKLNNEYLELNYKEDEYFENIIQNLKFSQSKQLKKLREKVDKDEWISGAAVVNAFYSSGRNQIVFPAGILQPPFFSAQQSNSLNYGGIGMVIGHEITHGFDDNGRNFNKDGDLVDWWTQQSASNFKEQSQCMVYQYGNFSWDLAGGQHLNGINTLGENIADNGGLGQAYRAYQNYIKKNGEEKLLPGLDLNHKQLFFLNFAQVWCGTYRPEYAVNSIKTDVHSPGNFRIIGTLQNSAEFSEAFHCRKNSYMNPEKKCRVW
pKi,Ki,SMILES
≥9.0,,"O=C(O)Cn1nc(C(=O)N[C@H](Cc2ccc(-c3ccccc3)cc2)C[C@@H](O)C(=O)O)cc1-c1ccccc1 [Example 15-35, (2R,4R)-5-Biphenyl-4-yl-4-[(1-carboxymethyl-5-phenyl-1H-pyrazole-3-carbonyl)-amino]-2-hydroxy-pentanoic acid]"
,1.26 to 10 nM,"O=C(O)CCn1nc(C(=O)N[C@H](Cc2ccc(-c3ccccc3)cc2)C[C@@H](O)C(=O)O)cc1-c1ccccc1 [Example 15-36, (2R,4R)-5-Biphenyl-4-yl-4-{[1-(2-carboxy-ethyl)-5-phenyl-1H-pyrazole-3-carbonyl]-amino}-2-hydroxy-pentanoic acid]"
,1.26 to 10 nM,"O=C(N[C@H](Cc1ccc(-c2ccccc2)cc1)CC(O)C(=O)O)c1cc(-c2ccco2)[nH]n1 (stereo partly drawn) [Example 15-37, (R)-5-Biphenyl-4-yl-4-[(5-furan-2-yl-1H-pyrazole-3-carbonyl)amino]-2-hydroxy-pentanoic acid]"
,1.26 to 10 nM,"O=C(N[C@H](Cc1ccc(-c2ccccc2)cc1)CC(O)C(=O)O)c1cc(-c2ccc3ccccc3c2)[nH]n1 (stereo partly drawn) [Example 15-38, (R)-5-Biphenyl-4-yl-2-hydroxy-4-[(5-naphthalen-2-yl-1H-pyrazole-3-carbonyl)amino]-pentanoic acid]"
,12.6 to 100 nM,"O=C(N[C@H](Cc1ccc(-c2ccccc2)cc1)CC(O)C(=O)O)c1cc(-c2ccc(-c3ccccc3)cc2)[nH]n1 (stereo partly drawn) [Example 15-39, (R)-5-Biphenyl-4-yl-4-[(5-biphenyl-4-yl-1H-pyrazole-3-carbonyl)amino]-2-hydroxy-pentanoic acid]"
,1.26 to 10 nM,"O=C(N[C@H](Cc1ccc(-c2ccccc2)cc1)CC(O)C(=O)O)c1cc(-c2ccc(Cl)cc2)[nH]n1 (stereo partly drawn) [Example 15-40, (R)-5-Biphenyl-4-yl-4-{[5-(4-chlorophenyl)-1H-pyrazole-3-carbonyl]amino}-2-hydroxy-pentanoic acid]"
,≤ 1 nM,"O=C(N[C@H](Cc1ccc(-c2ccccc2)cc1)CC(O)C(=O)O)c1cc(C(=O)N2CCC(O)C2)n[nH]1 (stereo partly drawn) [Example 15-42, (R)-5-Biphenyl-4-yl-2-hydroxy-4-{[5-(3-hydroxypyrrolidine-1-carbonyl)-2H-pyrazole-3-carbonyl]-amino}-pentanoic acid]"
,1.26 to 10 nM,"NC(=O)C1CCN(C(=O)c2cc(C(=O)N[C@H](Cc3ccc(-c4ccccc4)cc3)C[C@H](O)C(=O)O)[nH]n2)C1 (stereo partly drawn) [Example 15-44, (2S,4R)-5-Biphenyl-4-yl-4-{[5-(3-carbamoylpyrrolidine-1-carbonyl)-2H-pyrazole-3-carbonyl]-amino}-2-hydroxy-pentanoic acid]"
≥9.0,,"NC(=O)C1CCN(C(=O)c2cc(C(=O)N[C@H](Cc3ccc(-c4ccccc4)cc3)C[C@@H](O)C(=O)O)[nH]n2)C1 (stereo partly drawn) [Example 15-46, (2R,4R)-5-Biphenyl-4-yl-4-{[5-(3-carbamoylpyrrolidine-1-carbonyl)-2H-pyrazole-3-carbonyl]-amino}-2-hydroxy-pentanoic acid]"
≥9.0,,"O=C(N[C@H](Cc1ccc(-c2ccccc2)cc1)C[C@@H](O)C(=O)O)c1cc(C(=O)N2CCC(O)CC2)n[nH]1 [Example 15-48, (2R,4R)-5-Biphenyl-4-yl-2-hydroxy-4-{[5-(4-hydroxypiperidine-1-carbonyl)-2H-pyrazole-3-carbonyl]-amino}-pentanoic acid]"
,12.6 to 100 nM,"O=C(N[C@H](Cc1ccc(-c2ccccc2)cc1)C[C@H](O)C(=O)O)c1cc(C(=O)N2CCC(O)CC2)n[nH]1 [Example 15-50, (2S,4R)-5-Biphenyl-4-yl-2-hydroxy-4-{[5-(4-hydroxypiperidine-1-carbonyl)-2H-pyrazole-3-carbonyl]-amino}-pentanoic acid]"
,1.26 to 10 nM,"O=C(N[C@H](Cc1ccc(-c2ccccc2)cc1)CC(O)C(=O)O)c1cc(C(=O)N2CCOCC2)n[nH]1 (stereo partly drawn) [Example 15-53, (R)-5-Biphenyl-4-yl-2-hydroxy-4-{[5-(morpholine-4-carbonyl)-2H-pyrazole-3-carbonyl]amino}pentanoic acid]"
,12.6 to 100 nM,"O=C(NC1CC1)c1cc(C(=O)N[C@H](Cc2ccc(-c3ccccc3)cc2)C[C@H](O)C(=O)O)[nH]n1 [Example 15-55, (2S,4R)-5-Biphenyl-4-yl-4-[(5-cyclopropylcarbamoyl-2H-pyrazole-3-carbonyl)-amino]-2-hydroxypentanoic acid]"
,1.26 to 10 nM,"O=C(O)CNC(=O)c1cc(C(=O)N[C@H](Cc2ccc(-c3ccccc3)cc2)CC(O)C(=O)O)[nH]n1 (stereo partly drawn) [Example 15-56, (R)-5-Biphenyl-4-yl-4-{[5-(carboxymethyl-carbamoyl)-2H-pyrazole-3-carbonyl]-amino}-2-hydroxy-pentanoic acid]"
≥9.0,,"O=C(NC1CC1)c1cc(C(=O)N[C@H](Cc2ccc(-c3ccccc3)cc2)C[C@@H](O)C(=O)O)[nH]n1 [Example 15-57, (2R,4R)-5-Biphenyl-4-yl-4-[(5-cyclopropylcarbamoyl-2H-pyrazole-3-carbonyl)-amino]-2-hydroxypentanoic acid]"
,1.26 to 10 nM,"NC(=O)c1cc(C(=O)N[C@H](Cc2ccc(-c3ccccc3)cc2)CC(O)C(=O)O)[nH]n1 (stereo partly drawn) [Example 15-59, (R)-5-Biphenyl-4-yl-4-[(5-carbamoyl-2H-pyrazole-3-carbonyl)-amino]-2-hydroxy-pentanoic acid]"

pKi,Ki,SMILES
≥9.0,,"CNC(=O)c1cc(C(=O)N[C@H](Cc2ccc(-c3ccccc3)cc2)C[C@@H](O)C(=O)O)[nH]n1 [Example 15-60, (2R,4R)-5-Biphenyl-4-yl-2-hydroxy-4-[(5-methylcarbamoyl-2H-pyrazole-3-carbonyl)-amino]pentanoic acid]"
,≤ 1 nM,"CCCNC(=O)c1cc(C(=O)N[C@H](Cc2ccc(-c3ccccc3)cc2)CC(O)C(=O)O)[nH]n1 (stereo partly drawn) [Example 15-61, (R)-5-Biphenyl-4-yl-2-hydroxy-4-[(5-propylcarbamoyl-2H-pyrazole-3-carbonyl)-amino]pentanoic acid]"
≥9.0,,"CN(C)C(=O)c1cc(C(=O)N[C@H](Cc2ccc(-c3ccccc3)cc2)C[C@@H](O)C(=O)O)[nH]n1 [Example 15-63, (2R,4R)-5-Biphenyl-4-yl-4-[(5-dimethylcarbamoyl-2H-pyrazole-3-carbonyl)-amino]-2-hydroxy-pentanoic acid]"
,12.6 to 100 nM,"CC(C)CN(C)C(=O)c1cc(C(=O)N[C@H](Cc2ccc(-c3ccccc3)cc2)C[C@H](O)C(=O)O)[nH]n1 [Example 15-65, (2S,4R)-5-Biphenyl-4-yl-2-hydroxy-4-{[5-(isobutylmethyl-carbamoyl)-2H-pyrazole-3-carbonyl]amino}-pentanoic acid]"
≥9.0,,"CC(C)CN(C)C(=O)c1cc(C(=O)N[C@H](Cc2ccc(-c3ccccc3)cc2)C[C@@H](O)C(=O)O)[nH]n1 [Example 15-67, (2R,4R)-5-Biphenyl-4-yl-2-hydroxy-4-{[5-(isobutylmethyl-carbamoyl)-2H-pyrazole-3-carbonyl]amino}-pentanoic acid]"
,12.6 to 100 nM,"O=C(NCCc1cnc[nH]1)c1cc(C(=O)N[C@H](Cc2ccc(-c3ccccc3)cc2)C[C@@H](O)C(=O)O)[nH]n1 [Example 15-69, (2R,4R)-5-Biphenyl-4-yl-2-hydroxy-4-({5-[2-(3H-imidazol-4-yl)-ethylcarbamoyl]-2H-pyrazole-3-carbonyl}amino)pentanoic acid]"
,1.26 to 10 nM,"O=C(NCCO)c1cc(C(=O)N[C@H](Cc2ccc(-c3ccccc3)cc2)CC(O)C(=O)O)[nH]n1 (stereo partly drawn) [Example 15-70, (R)-5-Biphenyl-4-yl-2-hydroxy-4-{[5-(2-hydroxy-ethylcarbamoyl)-2H-pyrazole-3-carbonyl]-amino}-pentanoic acid]"
,1.26 to 10 nM,"CN(C)CCNC(=O)c1cc(C(=O)N[C@H](Cc2ccc(-c3ccccc3)cc2)CC(O)C(=O)O)[nH]n1 (stereo partly drawn) [Example 15-71, (R)-5-Biphenyl-4-yl-4-{[5-(2-dimethylamino-ethylcarbamoyl)-2H-pyrazole-3-carbonyl]-amino}-2-hydroxy-pentanoic acid]"
,12.6 to 100 nM,"O=C(N[C@H](Cc1ccc(-c2ccccc2)cc1)CC(O)C(=O)O)c1cc(C2CC2)n[nH]1 (stereo partly drawn) [Example 15-72, (R)-5-Biphenyl-4-yl-4-[(5-cyclopropyl-2H-pyrazole-3-carbonyl)-amino]-2-hydroxy-pentanoic acid]"
,12.6 to 100 nM,"CC(C)c1cc(C(=O)N[C@H](Cc2ccc(-c3ccccc3)cc2)CC(O)C(=O)O)[nH]n1 (stereo partly drawn) [Example 15-73, (R)-5-Biphenyl-4-yl-2-hydroxy-4-[(5-isopropyl-2H-pyrazole-3-carbonyl)amino]-pentanoic acid]"
,12.6 to 100 nM,"CCCc1cc(C(=O)N[C@H](Cc2ccc(-c3ccccc3)cc2)CC(O)C(=O)O)[nH]n1 (stereo partly drawn) [Example 15-74, (R)-5-Biphenyl-4-yl-2-hydroxy-4-[(5-propyl-2H-pyrazole-3-carbonyl)amino]-pentanoic acid]"
,1.26 to 10 nM,"CCCCc1cc(C(=O)N[C@H](Cc2ccc(-c3ccccc3)cc2)CC(O)C(=O)O)[nH]n1 (stereo partly drawn) [Example 15-75, (R)-5-Biphenyl-4-yl-4-[(5-butyl-2H-pyrazole-3-carbonyl)-amino]-2-hydroxy-pentanoic acid]"
,1.26 to 10 nM,"O=C(N[C@H](Cc1ccc(-c2ccccc2)cc1)CC(O)C(=O)O)c1cc(-c2ccccc2)n[nH]1 (stereo partly drawn) [Example 15-76, (R)-5-Biphenyl-4-yl-2-hydroxy-4-[(5-phenyl-2H-pyrazole-3-carbonyl)-amino]-pentanoic acid]"
≥9.0,,"COc1ccccc1-c1cc(C(=O)N[C@H](Cc2ccc(-c3ccccc3)cc2)C[C@@H](O)C(=O)O)[nH]n1 [Example 15-79, (2R,4R)-5-Biphenyl-4-yl-2-hydroxy-4-{[5-(2-methoxy-phenyl)-2H-pyrazole-3-carbonyl]-amino}-pentanoic acid]"
≥9.0,,"COc1ccc(OC)c(-c2cc(C(=O)N[C@H](Cc3ccc(-c4ccccc4)cc3)C[C@@H](O)C(=O)O)[nH]n2)c1 [Example 15-80, (2R,4R)-5-Biphenyl-4-yl-4-{[5-(2,5-dimethoxy-phenyl)-2H-pyrazole-3-carbonyl]-amino}-2-hydroxy-pentanoic acid]"
